In general, % inhibition refers to the drop in the measured response relative to a control, in per cent. Read a low % inhibition as a weak effect. A word on the inhibition: it is the relative decrease from the control value, in per cent.

This is an account of results in patent US6204293A, “Inhibitors of protein isoprenyl transferases” (University of Pittsburgh, priority 1998, dated 2001).

Where a name gives a salt, the structure may show the parent alone.

T1 sequence (Q02293 whole entry, one chain of several): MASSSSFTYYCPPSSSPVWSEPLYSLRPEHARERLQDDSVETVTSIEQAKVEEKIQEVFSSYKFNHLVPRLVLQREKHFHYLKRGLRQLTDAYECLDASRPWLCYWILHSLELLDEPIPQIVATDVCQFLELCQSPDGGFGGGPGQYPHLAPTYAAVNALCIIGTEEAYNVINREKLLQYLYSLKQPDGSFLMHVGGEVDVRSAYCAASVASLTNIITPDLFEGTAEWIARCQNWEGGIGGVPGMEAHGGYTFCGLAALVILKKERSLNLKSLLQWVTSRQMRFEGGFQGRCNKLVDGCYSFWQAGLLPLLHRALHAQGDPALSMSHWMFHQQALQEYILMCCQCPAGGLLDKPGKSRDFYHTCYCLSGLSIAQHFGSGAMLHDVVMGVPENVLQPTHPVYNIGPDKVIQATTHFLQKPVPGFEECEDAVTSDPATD

One test concerns the target T1, Rat brain protein farnesyltransferase (Rattus norvegicus, UniProt Q02293+Q04631).
T1 construct: Rat brain protein farnesyltransferase activity is measured; from tissue; host or cells: rat brain
Put plainly: % inhibition of farnesylation, scintillation proximity assay with biotin-K Ras B fragment. To be noted: Table 1; 1 × 10^-5 M. The test is classed as biochemical. Put shortly:
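Rat brain enzyme, purified through three steps, in a scintillation proximity assay kit with biotin-K Ras B fragment substrate at 0.1 mM final. Value is % inhibition of farnesylation.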
A general note: SPA uses beads or plates that emit light when radiolabelled molecules are held near them.
Consider `CSCC[C@H](NC(=O)c1ccc(NC(=O)c2cccc(N(C)C)c2)cc1-c1ccccc1)C(=O)O` [Example 752], for which the “% inhibition at 1 × 10^-5 M” value worked out at 58%.

Consider `CSCC[C@H](NC(=O)c1ccc(CNc2ccc(I)cc2)cc1-c1ccccc1)C(=O)O` [Example 688], for which the “% inhibition at 1 × 10^-5 M” value is listed as 71%. Consider `CSCC[C@H](NC(=O)c1ccc(CNCc2cc(Cl)cc(Cl)c2)cc1-c1ccccc1)C(=O)O` [Example 712], for which the “% inhibition at 1 × 10^-5 M” value is 69%. `CSCC[C@H](NC(=O)c1ccc(CNCCCN2CCOCC2)cc1-c1ccccc1)C(=O)O` [Example 377]: the “% inhibition at 1 × 10^-5 M” value amounted to 71%.

Still in this test, the particulars now being: Table 2; 1 × 10^-6 M.
Take `CCSC[C@H](CC1CCCCC1)NCc1ccc(C(=O)N[C@@H](CCSC)C(=O)O)c(-c2ccccc2C)c1` [Example 403]: the “% inhibition at 1 × 10^-6 M” value was 99%. Take `CSCC[C@H](NC(=O)c1ccc(CCc2cnc(Oc3ccccc3)cn2)cc1-c1ccccc1C)C(=O)O` [Example 813]: the “% inhibition at 1 × 10^-6 M” value was 95%. Still for that read-out and setting: next, `CSCC[C@H](NC(=O)c1ccc(CN(C2CC2)C(C)(C)CC2CCCCC2)cc1-c1ccccc1C)C(=O)O` [Example 316]: 63%; `CSCC[C@H](NC(=O)c1ccc(S(=O)(=O)NC2CCN(Cc3ccccc3)CC2)cc1-c1ccccc1C)C(=O)O` [Example 773]: 41%; `CCS(=O)(=O)C[C@H](CC1CCCCC1)NCc1ccc(C(=O)N[C@@H](CCSC)C(=O)O)c(-c2ccccc2C)c1` [Example 620]: 98%. In the case of `CSCC[C@H](NC(=O)c1ccc(CN(C(C)C)C2(Cc3ccccc3)CC2)cc1-c1ccccc1C)C(=O)O` [Example 325], the “% inhibition at 1 × 10^-6 M” value was determined as 99%.

Regarding `CSCC[C@H](NC(=O)c1ccc(CCCCC2CCCCC2)cc1-c1ccccc1C)C(=O)O` [Example 478], the “% inhibition at 1 × 10^-6 M” value stood at 98%.

Take `Cc1ccccc1-c1cc(CN(C2CC2)C2(Cc3ccccc3)CCC2)ccc1C(=O)N[C@@H](CCS(C)(=O)=O)C(=O)O` [Example 333]: the “% inhibition at 1 × 10^-6 M” value stood at 99%. Turning to `CSCCC(NC(=O)c1ccc(NC(=O)C2CCCNC2)cc1-c1ccccc1)C(=O)O` (stereo not shown) [Example 231], the “% inhibition at 1 × 10^-6 M” value is listed as 50%. Consider `Cc1ccccc1-c1cc(CN(C)C(C)(C)Cc2ccccc2)ccc1C(=O)N[C@@H](CCS(C)(=O)=O)C(=O)O` [Example 313], for which the “% inhibition at 1 × 10^-6 M” value is on record as 94%. The same measure, in the same setting: next, `CSCC[C@H](NC(=O)c1ccc(NC(=O)Cc2ccccc2)cc1-c1ccccc1C)C(=O)O` [Example 540]: 40%.

As to `CSCC[C@H](NC(=O)c1ccc(/C=C/CCc2ccccc2)cc1-c1ccccc1C)C(=O)O` [Example 472], the “% inhibition at 1 × 10^-6 M” value is given as 97%. `CSCC[C@H](NC(=O)c1ccc(CNCc2ccc(N)cc2)cc1-c1ccccc1)C(=O)O` [Example 653]: the “% inhibition at 1 × 10^-6 M” value came out at 62%. As for `CSCC[C@H](NC(=O)c1ccc(CN(C(C)C)C(C)(C)CC2CCCCC2)cc1-c1ccccc1C)C(=O)O` [Example 318], the “% inhibition at 1 × 10^-6 M” value stood at 98%. `CSCC[C@H](NC(=O)c1ccc(CN(CCO)Cc2ccccc2)cc1-c1ccccc1)C(=O)O` [Example 515]: the “% inhibition at 1 × 10^-6 M” value worked out at 72%.

With `CSCC[C@H](NC(=O)c1ccc(NC(=O)OCCCl)cc1-c1ccccc1)C(=O)O` [Example 979], the “% inhibition at 1 × 10^-6 M” value amounted to 26%.

The test is the same for the next values; noted with them: Table 3; 1 × 10^-7 M.
Take `CSCC[C@H](NC(=O)c1ccc(CN[C@H](CO)C2CCCCC2)cc1-c1ccccc1C)C(=O)O` [Example 520]: the “% inhibition at 1 × 10^-7 M” value was determined as 97%. Take `CCSC[C@H](CC1CCCCC1)N(Cc1ccc(C(=O)N[C@@H](CCSC)C(=O)O)c(-c2ccccc2C)c1)C(C)=O` [Example 947]: the “% inhibition at 1 × 10^-7 M” value worked out at 79%. On to `CSCC[C@H](NC(=O)c1ccc(NC[C@@H]2C[C@H](S)CN2)cc1-c1ccccc1)C(=O)O` [Example 959], for which the “% inhibition at 1 × 10^-7 M” value was above 50%.

The test is the same for the next values; noted with them: Table 4; 1 × 10^-8 M.
Take `CSCC[C@H](NC(=O)c1ccc(NC[C@H]2NCC[C@H]2S)cc1-c1ccccc1)C(=O)O` [Example 960]: the “% inhibition at 1 × 10^-8 M” value is given as above 50%.

The same test, now with this note: read-out: % inhibition at 0.01 μM (**).
Consider `CSCC[C@H](NC(=O)c1ccc(COCc2ccnnc2)cc1-c1ccccc1C)C(=O)O` [Example 1221, N-[4-(Pyridazin-4-ylmethoxymethyl)-2-(2-methylphenyl)benzoyl]methionine lithium salt], for which the inhibition at 0.01 µM amounted to 82%.

Staying with this test, now noted: read-out: % inhibition at 0.01 μM (**); Table 6; ** footnote 0.01 μM (title: 0.01 mM).
As for `CSCC[C@H](NC(=O)c1ccc(COCc2cc(F)cc(F)c2)cc1-c1ccccc1C)C(=O)O` [Example 1226, N-[4-(3,5-trifluorobenzyloxymethyl)-2-(2-methylphenyl)benzoyl]methionine lithium salt], the inhibition at 0.01 µM was 69%. For `CSCC[C@H](NC(=O)c1ccc(CO[C@H](COCC(O)CO)CC2CCCCC2)cc1-c1ccccc1C)C(=O)O` (stereo partly shown) [Example 1347, N-[4-(3-Cyclohexyl-1-(2,3-dihydroxy-1-propoxy)-prop-2-yloxymethyl)-2-(2-methylphenyl)benzoyl]methionine, Lithium Salt], the inhibition at 0.01 µM stood at 81%. Consider `CSCC[C@H](NC(=O)c1ccc(CO[C@@H](CC2CCCCC2)C(=O)N2CCS(=O)(=O)CC2)cc1-c1ccccc1C)C(=O)O` [Example 1348, N-[4-(3-cyclohexyl-N-thiomorpholin-S,S-dioxide-4-ylpropion-2-yloxymethyl)-2-(2-methylphenyl)benzoyl]methionine, Lithium Salt], for which the inhibition at 0.01 µM stood at 78%.

Still in this test, the particulars now being: read-out: % inhibition at 0.1 μM (*); Table 6; * footnote 0.1 μM (title: 0.1 mM).
As to `CCCC[C@@H](COCc1ccc(C(=O)N[C@@H](CCSC)C(=O)O)c(-c2ccccc2C)c1)CC1CCCCC1` [Example 1315, N-[4-(2-Cyclohexylmethylhex-1-yloxymethyl)-2-(2-methylphenyl)benzoyl]methionine Lithium Salt], the inhibition at 0.1 µM was found to be 86%. The same measure, in the same setting: with `CCCCC(OCc1ccc(C(=O)N[C@@H](CCSC)C(=O)O)c(-c2ccccc2C)c1)C1CCOCC1` (stereo partly shown) [Example 1282, N-[4-(1-(4-tetrahydropyranyl)pentyloxymethyl-2-(2-methylphenyl)benzoyl]methioninelithium salt] the figure was 69%. On the same count and under the same terms, with `CSCC[C@H](NC(=O)c1ccc(COC(CC2CCCCC2)c2sc(C)nc2C)cc1-c1ccccc1C)C(=O)O` (stereo partly shown) [Example 1096, N-[4-(1-(2,4-dimethylthiazol-5-yl)-2-cyclohexylethoxy)methyl)-2-(2-methylphenyl)benzoyl]methionine lithium salt] the figure was 86%. Take `CCCCC(OCc1ccc(C(=O)N[C@@H](CCSC)C(=O)O)c(-c2ccccc2C)c1)c1sc(C)nc1C` (stereo partly shown) [Example 1098, N-[4-1-(2,4-dimethylthiazol-5-yl)pentyloxy)methyl-2-(2-methylphenyl)benzoyl]methionine lithium salt]: the inhibition at 0.1 µM came to 60%.

Still in this test, the particulars now being: read-out: % inhibition at 1 × 10^-6 M; Table 2; 1 × 10^-6 M.
`CSCC[C@H](NC(=O)c1ccc(CSc2nc3ccccc3s2)cc1-c1ccccc1C)C(=O)O` [Example 323, [4-(2-benzothiazolylthiomethyl)-2-(2-methylphenyl)benzoyl]methionine]: the inhibition at 1 µM turned out to be 98%.

`CSCC[C@H](NC(=O)c1ccc(COCc2ccoc2)cc1-c1ccccc1C)C(=O)O` [Example 530, N-[4-(furan-3-ylmethoxymethyl)-2-(2-methylphenyl)benzoyl]methionine litihium salt]: the inhibition at 1 µM is 94%. In the case of `CSCC[C@H](NC(=O)c1ccc(COCc2ccccc2)cc1-c1ccccc1)C(=O)O` [Example 575, N-[4-(benzyloxymethyl)-2-phenylbenzoyl]methionine], the inhibition at 1 µM came out at 70%.

The test is the same for the next values; noted with them: read-out: % inhibition at 1 × 10^-7 M.
For `CSCC[C@H](NC(=O)c1ccc(CSCC2CCCCC2)cc1-c1ccccc1C)C(=O)O` [Example 559, N-[4-cyclohexylmethylthiomethyl-2-(2-methylphenyl)benzoyl]methionine, lithium salt], the inhibition at 0.1 µM was determined as 96%. Still for that read-out and setting: with `CSCC[C@H](NC(=O)c1ccc(COCC2CCCCC2)cc1-c1ccccc1C)C(=O)O` [Example 585, N-[4-(cyclohexylmethoxymethyl)-2-(2-methylphenyl)benzoyl]methionine lithium salt] the figure was 96%; with `CSCC[C@H](NC(=O)c1ccc(COCCc2ccc(-c3ccc(F)cc3)o2)cc1-c1ccccc1C)C(=O)O` [Example 535, N-[4-(5-(4-fluorophenyl)furan-2-ylethoxymethyl)-2-(2-methylphenyl)benzoyl]methionine lithium salt], 89%.

Still in this test, the particulars now being: read-out: % inhibition at 1 × 10^-7 M; Table 3; 1 × 10^-7 M.
In the case of `CSCC[C@H](NC(=O)c1ccc(COCCCCC2CCCCC2)cc1-c1ccccc1C)C(=O)O` [Example 600], the inhibition at 0.1 µM came out at 93%. `CSCC[C@H](NC(=O)c1ccc(COCC2CCC(c3ccc(Cl)cc3)O2)cc1-c1ccccc1C)C(=O)O` (stereo partly drawn) [Example 822, N-[4-(5-syn(4chlorophenyl)tetrahydrofuran-2-ylmethoxymethyl)-2-(2-methylphenyl)benzoyl]methionine lithium salt]: the inhibition at 0.1 µM amounted to 93%.

Staying with this test, now noted: read-out: % inhibition at 1 × 10^-8 M; Table 4; 1 × 10^-8 M.
With `CCSC[C@H](CC1CCCCC1)OCc1ccc(C(=O)N[C@@H](CCSC)C(=O)O)c(-c2ccccc2C)c1` [Example 606, Lithium Salt], the inhibition at 0.01 µM is 93%. As for `CSCC[C@H](NC(=O)c1ccc(CO[C@H](CSc2ccccc2)CC2CCCCC2)cc1-c1ccccc1C)C(=O)O` [Example 884, N-[4-(3-Cyclohexyl-1-phenylthiopropan-2-yl)oxymethyl-2-(2-methylphenyl)benzoyl]methionine lithium salt], the inhibition at 0.01 µM was found to be 94%. Still for that read-out and setting: next, `CSCC[C@H](NC(=O)c1ccc(CO[C@H](CSC(C)(C)C)Cc2ccccc2)cc1-c1ccccc1C)C(=O)O` [Example 994, N-[4-(1-t-butylthio-3-phenylprop-2-oxymethyl)-2-(2-methylphenyl)benzoyl]methionine]: 83%.
